Measurements published in patent publication US8778966B2, “Quinolinone derivatives as PARP and tank inhibitors” (Janssen Pharmaceutica, NV, priority 2007, dated 2014).

Target: T1, Human PARP-1 enzyme (Homo sapiens, UniProt P09874)
T1 construct: purchased Trevigen
Test: In vitro Scintillation Proximity Assay (SPA) for PARP-1 inhibitory activity
Type: biochemical
Conditions: read-out: in vitro SPA assay PARP-1 pIC50 (converted)
Outline: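 SPA assay: nicked-DNA-activated PARP-1 (0.1–0.2 μg/ml) ADP-ribosylates biotinylated histones (2 μg/ml) using [3H]-NAD+, 20 min at RT in Tris pH 8/DTT/MgCl2, stopped with 2 mM NAD+. Blank-subtracted cpm expressed as % control; IC50 by linear interpolation, reported as pIC50 (10−5 to 3×10−9 M tested).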

T1 sequence (P09874 whole entry): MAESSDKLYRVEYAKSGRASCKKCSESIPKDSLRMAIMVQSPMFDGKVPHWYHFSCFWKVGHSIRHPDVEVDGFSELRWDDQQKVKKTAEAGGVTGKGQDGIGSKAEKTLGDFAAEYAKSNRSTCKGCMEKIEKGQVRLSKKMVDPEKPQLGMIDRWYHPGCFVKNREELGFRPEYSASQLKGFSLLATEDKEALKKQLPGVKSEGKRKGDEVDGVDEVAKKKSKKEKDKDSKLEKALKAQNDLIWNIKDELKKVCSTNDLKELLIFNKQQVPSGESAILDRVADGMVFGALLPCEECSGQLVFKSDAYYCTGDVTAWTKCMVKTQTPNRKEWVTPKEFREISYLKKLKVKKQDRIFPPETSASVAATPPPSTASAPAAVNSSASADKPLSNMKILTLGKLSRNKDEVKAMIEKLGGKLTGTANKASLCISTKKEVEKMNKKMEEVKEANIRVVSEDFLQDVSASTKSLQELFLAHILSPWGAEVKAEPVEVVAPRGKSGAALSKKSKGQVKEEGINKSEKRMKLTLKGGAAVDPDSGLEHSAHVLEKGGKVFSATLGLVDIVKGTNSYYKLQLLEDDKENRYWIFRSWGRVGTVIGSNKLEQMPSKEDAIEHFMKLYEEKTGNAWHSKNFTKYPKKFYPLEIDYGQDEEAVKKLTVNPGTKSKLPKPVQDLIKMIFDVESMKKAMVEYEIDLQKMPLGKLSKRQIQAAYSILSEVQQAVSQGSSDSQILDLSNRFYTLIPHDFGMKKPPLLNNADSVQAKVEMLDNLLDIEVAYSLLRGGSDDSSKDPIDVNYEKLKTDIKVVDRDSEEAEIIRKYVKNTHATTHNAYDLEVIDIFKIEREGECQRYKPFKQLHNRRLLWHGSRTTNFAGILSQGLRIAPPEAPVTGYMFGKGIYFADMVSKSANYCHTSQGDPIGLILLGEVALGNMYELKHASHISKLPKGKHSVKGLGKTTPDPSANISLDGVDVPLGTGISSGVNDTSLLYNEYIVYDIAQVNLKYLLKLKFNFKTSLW

Structure (SMILES) | IC50 [nM]
CCc1cc2ccc(C(C)(C#N)Cc3cccc(C#N)n3)cc2[nH]c1=O (single isomer, unassigned) [Compound 206] | 50.1
CCc1cc2ccc(C(C)(C#N)Cc3cccc(C#N)n3)cc2[nH]c1=O (single isomer, unassigned) [Compound 207] | 39.8
CCc1cc2ccc([C@@](C)(C#N)Cc3cccc(N(C)C)c3)cc2[nH]c1=O (single isomer, unassigned) [Compound 258] | 50.1
CCc1cc2ccc([C@](C)(C#N)Cc3cccc(N(C)C)c3)cc2[nH]c1=O (single isomer, unassigned) [Compound 259] | 79.4
CCC[C@@](C#N)(Cc1ccccc1)c1ccc2cc(CC)c(=O)[nH]c2c1 (single isomer, unassigned) [Compound 263] | 631
CCC[C@](C#N)(Cc1ccccc1)c1ccc2cc(CC)c(=O)[nH]c2c1 (single isomer, unassigned) [Compound 264] | 398
CCc1cc2ccc([C@@](C)(C#N)Cc3cccc(C#N)c3)cc2[nH]c1=O (single isomer, unassigned) [Compound 268] | 50.1
CCc1cc2ccc([C@](C)(C#N)Cc3cccc(C#N)c3)cc2[nH]c1=O (single isomer, unassigned) [Compound 269] | 31.6
CCc1cc2ccc([C@](C)(C#N)C[C@@H]3Cc4cc(C)ccc4O3)cc2[nH]c1=O (single isomer, unassigned) [Compound 400] | 398
C#Cc1cccc(C[C@](C)(C#N)c2ccc3cc(CC)c(=O)[nH]c3c2)c1 [Compound 2] | 126
C#Cc1cccc(C[C@@](C)(C#N)c2ccc3cc(CC)c(=O)[nH]c3c2)c1 [Compound 3] | 79.4
CCc1cc2ccc(C(C#N)(CC)Cc3ccccc3)cc2[nH]c1=O (stereo not shown) [Compound 32] | 501
COc1ccccc1-c1nc(CC(C)(C#N)c2ccc3cc(C)c(=O)[nH]c3c2)no1 (stereo not shown) [Compound 33] | 1260
Cc1cc2ccc(C(C)(C#N)Cc3cccc(C#N)c3)cc2[nH]c1=O (stereo not shown) [Compound 34] | 794
Cc1cc2ccc([C@@](C)(C#N)Cc3cccc(C#N)c3)cc2[nH]c1=O [Compound 35] | 501
Cc1cc2ccc([C@](C)(C#N)Cc3cccc(C#N)c3)cc2[nH]c1=O [Compound 36] | 1580
Cc1cc2ccc(C(C)(C#N)Cc3cccc(Cl)c3)cc2[nH]c1=O (stereo not shown) [Compound 37] | 2000
CC(C)c1cc2ccc(C(C)(C#N)Cc3ccccc3)cc2[nH]c1=O (stereo not shown) [Compound 38] | > 10000
CC(=O)c1cc2ccc(C(C)(C#N)Cc3ccccc3)cc2[nH]c1=O (stereo not shown) [Compound 39] | 7940
CCc1cc2ccc(C(C)(C#N)Cc3cccc(OC[C@@H](O)CO)c3)cc2[nH]c1=O (stereo partly shown) [Compound 56] | 100

Structure (SMILES) | IC50 [nM]
CCc1cc2ccc(C(C)(C#N)Cc3cccc(CCC#N)c3)cc2[nH]c1=O (stereo not shown) [Compound 169] | 79.4
CCc1cc2ccc(C(C)(C#N)Cc3cccc(CNS(C)(=O)=O)c3)cc2[nH]c1=O (stereo not shown) [Compound 170] | 79.4
C=Cc1cccc(CC(C)(C#N)c2ccc3cc(CC)c(=O)[nH]c3c2)c1 (stereo not shown) [Compound 172] | 100
CCc1cc2cc(F)c(C(C)(C#N)Cc3cccc(C#N)c3)cc2[nH]c1=O (stereo not shown) [Compound 175] | 200
CCc1c(C)c2ccc(C(C)(C#N)Cc3cccc(C#N)c3)cc2[nH]c1=O (stereo not shown) [Compound 181] | 100
CCc1cc2cc(OCCOC)c(C(C)(C#N)Cc3cccc(C#N)c3)cc2[nH]c1=O (stereo not shown) [Compound 182] | 158
CCc1cc2ccc(C(C)(C#N)Cc3cccc(C#CCO)c3)cc2[nH]c1=O (stereo not shown) [Compound 183] | 63.1
CCc1cc2ccc(C(F)(C#N)Cc3ccccc3)cc2[nH]c1=O (stereo not shown) [Compound 187] | 63.1
CCc1cc2ccc(C(C)(C#N)CN(C)Cc3ccccc3)cc2[nH]c1=O (stereo not shown) [Compound 189] | 398
CCc1cc2ccc(C(C)(C#N)C(C)c3ccccc3)cc2[nH]c1=O (stereo not shown) [Compound 198] | 126
CCc1cc2ccc([C@](C)(C#N)[C@@H](C)c3ccccc3)cc2[nH]c1=O [Compound 199] | 79.4
CCc1cc2ccc([C@](C)(C#N)[C@H](C)c3ccccc3)cc2[nH]c1=O [Compound 200] | 251
CCc1cc2ccc(C(C)(C#N)Cc3cccc(C#C[Si](C)(C)C)n3)cc2[nH]c1=O (stereo not shown) [Compound 210] | 398
C#Cc1cccc(CC(C)(C#N)c2ccc3cc(CC)c(=O)[nH]c3c2)n1 (stereo not shown) [Compound 211] | 126
CCc1cc2ccc(C(C)(C#N)Cc3cccc(N(C)C)n3)cc2[nH]c1=O (stereo not shown) [Compound 213] | 63.1
CCc1cc2ccc(C(C)(C#N)Cc3cccc(I)n3)cc2[nH]c1=O (stereo not shown) [Compound 214] | 50.1
CCOC(=O)c1cccc(CC(C)(C#N)c2ccc3cc(CC)c(=O)[nH]c3c2)n1 (stereo not shown) [Compound 215] | 398
CCc1cc2ccc(C(C)(C#N)Cc3cccc(COC)n3)cc2[nH]c1=O (stereo not shown) [Compound 216] | 398
CCc1cc2ccc(C(C)(C#N)Cc3cccc(OCCOC)n3)cc2[nH]c1=O (stereo not shown) [Compound 219] | 100
CCc1cc2ccc(C(C)(C#N)Cc3cccc(CN)n3)cc2[nH]c1=O (stereo not shown) [Compound 221] | 79.4
